We go through 24 compounds from patent publication US20160039825A1 (BIOGEN MA INC., priority 2013, published 2016).

In this test the target is T1, Human ATX protein (Homo sapiens, UniProt Q13822).
T1 construct: made in house
In words: Autotaxin (ATX) assay, FRET with FS-3 substrate. It is filed as biochemical. Conditions: upper bound bins (no greater than 100, 250 or 500 nM); FS-3 2 μM, ATX 1.0 μg/mL. In a few lines: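 Hydrolysis of the FRET substrate FS-3 (2 μM final) unquenches fluorescein, read at excitation 485 nm and emission 538 nm after 2 h at room temperature, protected from light. Purified human ATX (1.0 μg/mL) and compound were first incubated for 30 min in pH 7.4 Tris/salt buffer containing 1 mg/mL fatty acid-free BSA.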
For orientation: IC50 means the concentration at which inhibition is half-maximal. Read a low IC50 as higher potency. Turning to `CCOC(=O)c1nn2c(c1Cl)CN(C(=O)OCc1cc(C(F)(F)F)cc(C(F)(F)F)c1)CC2` [Example 112, 5-(3,5-Bis(trifluoromethyl)benzyl) 2-ethyl 3-chloro-6,7-dihydropyrazolo[1,5-a]pyrazine-2,5(4H)-dicarboxylate], the IC50 was ≤ 250 nM.
Under `O=C(O)c1nn2c(c1Cl)CN(C(=O)OCc1cc(C(F)(F)F)cc(C(F)(F)F)c1)CC2` [Example 113, 5-(((3,5-Bis(trifluoromethyl)benzyl)oxy)carbonyl)-3-chloro-4,5,6,7-tetrahydropyrazolo[1,5-a]pyrazine-2-carboxylic acid] stands ≤ 250 nM; under `CCOC(=O)c1nn2c(c1Br)CN(C(=O)OCc1cc(C(F)(F)F)cc(C(F)(F)F)c1)CCC2` [Example 114, 5-(3,5-Bis(trifluoromethyl)benzyl) 2-ethyl 3-bromo-7,8-dihydro-4H-pyrazolo[1,5-a][1,4]diazepine-2,5(6H)-dicarboxylate], ≤ 100 nM; under `O=C(O)c1nn2c(c1Br)CN(C(=O)OCc1cc(C(F)(F)F)cc(C(F)(F)F)c1)CCC2` [Example 115, 5-(((3,5-Bis(trifluoromethyl)benzyl)oxy)carbonyl)-3-bromo-5,6,7,8-tetrahydro-4H-pyrazolo[1,5-a][1,4]diazepine-2-carboxylic acid], ≤ 100 nM.
Under `O=C(O)c1cc2n(n1)CCCN(C(=O)CNc1cc(C(F)(F)F)cc(C(F)(F)F)c1)C2` [Example 116, 5-(2-((3,5-Bis(trifluoromethyl)phenyl)amino)acetyl)-5,6,7,8-tetrahydro-4H-pyrazolo[1,5-a][1,4]diazepine-2-carboxylic acid] stands ≤ 500 nM; under `O=C(O)c1cc2n(n1)CCCN(C(=O)COc1cc(C(F)(F)F)cc(C(F)(F)F)c1)C2` [Example 117, 5-(2-(3,5-Bis(trifluoromethyl)phenoxy)acetyl)-5,6,7,8-tetrahydro-4H-pyrazolo[1,5-a][1,4]diazepine-2-carboxylic acid], ≤ 500 nM; under `Cc1noc(-c2cc3n(n2)CCCN(C(=O)OCc2cc(C(F)(F)F)cc(C(F)(F)F)c2)C3)n1` [Example 118, 3,5-Bis(trifluoromethyl)benzyl 2-(3-methyl-1,2,4-oxadiazol-5-yl)-7,8-dihydro-4H-pyrazolo[1,5-a][1,4]diazepine-5(6H)-carboxylate], ≤ 100 nM.
Under `Cc1nnc(-c2cc3n(n2)CCCN(C(=O)OCc2cc(C(F)(F)F)cc(C(F)(F)F)c2)C3)o1` [Example 119, 3,5-Bis(trifluoromethyl)benzyl 2-(5-methyl-1,3,4-oxadiazol-2-yl)-7,8-dihydro-4H-pyrazolo[1,5-a][1,4]diazepine-5(6H)-carboxylate] stands ≤ 100 nM; under `N#Cc1cc2n(n1)CCCN(C(=O)OCc1cc(Cl)cc(Cl)c1)C2` [Example 122, 3,5-Dichlorobenzyl 2-cyano-7,8-dihydro-4H-pyrazolo[1,5-a][1,4]diazepine-5(6H)-carboxylate], ≤ 250 nM; under `O=C(OCc1cc(Cl)cc(Cl)c1)N1CCCn2nc(-c3nnn[nH]3)cc2C1` [Example 123, 3,5-Dichlorobenzyl 2-(1H-tetrazol-5-yl)-7,8-dihydro-4H-pyrazolo[1,5-a][1,4]diazepine-5(6H)-carboxylate], ≤ 250 nM.
For `Cc1cc2n(n1)CCCN(C(=O)OCc1cc(C(F)(F)F)cc(C(F)(F)F)c1)C2` [Example 124, 3,5-Bis(trifluoromethyl)benzyl 2-methyl-7,8-dihydro-4H-pyrazolo[1,5-a][1,4]diazepine-5(6H)-carboxylate], the IC50 was ≤ 100 nM.
Under `N#Cc1cc2n(n1)CCCN(C(=O)OCc1cc(C(F)(F)F)cc(C(F)(F)F)c1)C2` [Example 125, 3,5-Bis(trifluoromethyl)benzyl 2-cyano-7,8-dihydro-4H-pyrazolo[1,5-a][1,4]diazepine-5(6H)-carboxylate] stands ≤ 100 nM; under `O=C(OCc1cc(F)cc(C(F)(F)F)c1)N1CCn2cc(C(F)(F)F)nc2C1` [Example 126, 3-Fluoro-5-(trifluoromethyl)benzyl 2-(trifluoromethyl)-5,6-dihydroimidazo[1,2-a]pyrazine-7(8H)-carboxylate], ≤ 500 nM; under `O=C(OCc1cc(C(F)(F)F)cc(C(F)(F)F)c1)N1CCn2cc(C(F)(F)F)nc2C1` [Example 127, 3,5-Bis(trifluoromethyl)benzyl 2-(trifluoromethyl)-5,6-dihydroimidazo[1,2-a]pyrazine-7(8H)-carboxylate], ≤ 100 nM.
Under `Cc1cc2n(n1)CCCN(C(=O)OCc1cc(F)cc(C(F)(F)F)c1)C2` [Example 128, 3-Fluoro-5-(trifluoromethyl)benzyl 2-methyl-7,8-dihydro-4H-pyrazolo[1,5-a][1,4]diazepine-5(6H)-carboxylate] stands ≤ 250 nM; under `N#Cc1cc2n(n1)CCCN(C(=O)OCc1cc(F)cc(C(F)(F)F)c1)C2` [Example 129], ≤ 500 nM.
Under `Cc1cc2n(n1)CCCN(C(=O)OCc1cc(Cl)cc(Cl)c1)C2` [Example 130, 3,5-Dichlorobenzyl 2-methyl-7,8-dihydro-4H-pyrazolo[1,5-a][1,4]diazepine-5(6H)-carboxylate] stands ≤ 500 nM; under `O=C(OCc1cc(Cl)cc(Cl)c1)N1CCn2cc(C(F)(F)F)nc2C1` [Example 131, 3,5-Dichlorobenzyl 2-(trifluoromethyl)-5,6-dihydroimidazo[1,2-a]pyrazine-7(8H)-carboxylate], ≤ 500 nM.
For `O=C(OCc1cc(C(F)(F)F)cc(C(F)(F)F)c1)N1CCCn2cncc2C1` [Example 132, 3,5-Bis(trifluoromethyl)benzyl 6,7-dihydro-5H-imidazo[1,5-a][1,4]diazepine-8(9H)-carboxylate], the IC50 was ≤ 100 nM.
Under `O=C(OCc1cc(Cl)cc(Cl)c1)N1CCCn2cncc2C1` [Example 133, 3,5-Dichlorobenzyl 6,7-dihydro-5H-imidazo[1,5-a][1,4]diazepine-8(9H)-carboxylate] stands ≤ 100 nM.
Under `O=C(OCc1cc(C(F)(F)F)cc(C(F)(F)F)c1)N1CCn2c(nnc2C(F)(F)F)C1` [Example 134, 3,5-Bis(trifluoromethyl)benzyl 3-(trifluoromethyl)-5,6-dihydro-[1,2,4]triazolo[4,3-a]pyrazine-7(8H)-carboxylate] stands ≤ 500 nM; under `O=C(OCc1cc(Cl)cc(C(F)(F)F)c1)N1CCn2c(nnc2C(F)(F)F)C1` [Example 135, 3-Chloro-5-(trifluoromethyl)benzyl 3-(trifluoromethyl)-5,6-dihydro-[1,2,4]triazolo[4,3-a]pyrazine-7(8H)-carboxylate], ≤ 500 nM; under `O=C(OCc1cc(C(F)(F)F)cc(C(F)(F)F)c1)N1CCCn2nc(-c3nnn[nH]3)cc2C1` [Example 136, 3,5-Bis(trifluoromethyl)benzyl 2-(1H-tetrazol-5-yl)-7,8-dihydro-4H-pyrazolo[1,5-a][1,4]diazepine-5(6H)-carboxylate], ≤ 100 nM.
Under `CCOC(=O)c1cc2n(n1)CCCN(C(=O)OCCc1cc(C(F)(F)F)cc(C(F)(F)F)c1)C2` [Example 141, 5-(3,5-Bis(trifluoromethyl)phenethyl) 2-ethyl 7,8-dihydro-4H-pyrazolo[1,5-a][1,4]diazepine-2,5(6H)-dicarboxylate] stands ≤ 500 nM.
